According to ChEMBL document CHEMBL1140165, “Rotationally constrained 2,4-diamino-5,6-disubstituted pyrimidines: a new class of histamine H4 receptor antagonists with improved druglikeness and in vivo efficacy in pain and inflammation models” (J Med Chem, 2008):
The source made the active and inactive calls.

What was measured:
[1] = target: T1, Histamine H4 receptor (Rattus norvegicus, UniProt Q91ZY1); assay: Antagonist activity at rat histamine H4 receptor expressed in HEK293 cells assessed as inhibition of histamine-induced intracellular calcium elevation by FLIPR assay; assay type: functional, cell-based
T1 sequence (Q91ZY1 whole entry): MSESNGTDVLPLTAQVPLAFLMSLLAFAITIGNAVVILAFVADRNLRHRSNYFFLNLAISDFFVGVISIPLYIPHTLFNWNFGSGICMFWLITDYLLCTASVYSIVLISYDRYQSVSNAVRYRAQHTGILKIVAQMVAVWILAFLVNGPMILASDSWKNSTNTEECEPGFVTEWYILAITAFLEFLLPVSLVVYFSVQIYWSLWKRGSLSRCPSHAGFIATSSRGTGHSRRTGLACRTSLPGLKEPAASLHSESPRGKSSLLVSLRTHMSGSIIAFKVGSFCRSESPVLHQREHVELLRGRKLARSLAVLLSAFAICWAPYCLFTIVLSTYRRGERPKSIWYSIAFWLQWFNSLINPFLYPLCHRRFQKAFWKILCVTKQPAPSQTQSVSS

[2] = target: T2, Histamine H4 receptor (Mus musculus, UniProt Q91ZY2); assay: Antagonist activity at mouse histamine H4 receptor expressed in HEK293 cells assessed as inhibition of histamine-induced intracellular calcium elevation by FLIPR assay; assay type: functional, cell-based
T2 sequence (Q91ZY2 whole entry): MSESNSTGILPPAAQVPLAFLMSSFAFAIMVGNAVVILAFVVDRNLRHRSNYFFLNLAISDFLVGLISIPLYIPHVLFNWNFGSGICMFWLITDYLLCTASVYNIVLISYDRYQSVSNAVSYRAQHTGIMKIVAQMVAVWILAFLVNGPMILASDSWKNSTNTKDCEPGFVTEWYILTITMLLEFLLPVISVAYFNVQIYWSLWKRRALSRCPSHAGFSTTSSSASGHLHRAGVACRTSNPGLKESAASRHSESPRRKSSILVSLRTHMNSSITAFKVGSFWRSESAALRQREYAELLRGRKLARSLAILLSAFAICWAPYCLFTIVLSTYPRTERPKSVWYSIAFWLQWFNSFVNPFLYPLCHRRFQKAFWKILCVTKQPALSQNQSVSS

[3] = target: T1, Histamine H4 receptor; assay: Displacement of [3H]histamine from rat histamine H4 receptor expressed in HEK293 cells; assay type: cell-based
[4] = test system: BMMC; assay: Blockade of histamine-induced morphological changes in BALB/c mouse BMMC by flow cytometry; assay type: functional, cell-based
[5] = target: Prostaglandin G/H synthase 1 (Homo sapiens) (UniProt P23219); assay: Binding affinity at COX1
Sequence of Prostaglandin G/H synthase 1 (Homo sapiens) (P23219 whole entry): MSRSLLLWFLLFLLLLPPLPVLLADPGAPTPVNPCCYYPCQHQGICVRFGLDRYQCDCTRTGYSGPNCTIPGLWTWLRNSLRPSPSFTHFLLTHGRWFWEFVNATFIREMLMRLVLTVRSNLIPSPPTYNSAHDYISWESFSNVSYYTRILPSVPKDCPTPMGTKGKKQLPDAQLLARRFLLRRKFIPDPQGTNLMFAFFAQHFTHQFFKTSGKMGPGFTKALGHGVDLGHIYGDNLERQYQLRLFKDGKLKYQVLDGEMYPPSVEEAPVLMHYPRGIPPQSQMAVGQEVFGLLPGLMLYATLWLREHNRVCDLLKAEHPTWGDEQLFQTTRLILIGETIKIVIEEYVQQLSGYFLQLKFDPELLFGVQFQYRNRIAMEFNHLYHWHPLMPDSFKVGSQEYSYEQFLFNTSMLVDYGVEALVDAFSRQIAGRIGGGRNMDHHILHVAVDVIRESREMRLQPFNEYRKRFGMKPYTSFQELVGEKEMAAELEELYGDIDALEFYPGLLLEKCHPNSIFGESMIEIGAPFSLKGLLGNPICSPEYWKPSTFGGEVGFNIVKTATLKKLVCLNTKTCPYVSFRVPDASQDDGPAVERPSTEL

[6] = target: T3, Prostaglandin G/H synthase 2 (Homo sapiens) (UniProt P35354); assay: Binding affinity at COX2
T3 sequence (whole entry): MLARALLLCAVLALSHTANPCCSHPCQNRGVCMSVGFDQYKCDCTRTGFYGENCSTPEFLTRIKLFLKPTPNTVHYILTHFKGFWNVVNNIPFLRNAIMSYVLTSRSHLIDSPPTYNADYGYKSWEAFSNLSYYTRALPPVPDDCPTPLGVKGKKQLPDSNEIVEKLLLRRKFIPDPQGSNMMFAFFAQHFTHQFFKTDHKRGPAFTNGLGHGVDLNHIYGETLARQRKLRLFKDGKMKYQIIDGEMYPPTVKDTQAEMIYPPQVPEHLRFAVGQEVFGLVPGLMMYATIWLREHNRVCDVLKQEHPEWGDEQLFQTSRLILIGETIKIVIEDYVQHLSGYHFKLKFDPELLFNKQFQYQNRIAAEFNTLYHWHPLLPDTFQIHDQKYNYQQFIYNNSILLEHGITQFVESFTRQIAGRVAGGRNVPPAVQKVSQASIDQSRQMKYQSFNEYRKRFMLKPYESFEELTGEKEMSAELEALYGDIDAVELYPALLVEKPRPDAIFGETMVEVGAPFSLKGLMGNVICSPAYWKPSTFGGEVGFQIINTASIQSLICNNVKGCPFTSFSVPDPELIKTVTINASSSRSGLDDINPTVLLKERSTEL

[7] = target: Mu-type opioid receptor (Homo sapiens) (UniProt P35372); assay: Binding affinity to mu opioid receptor
Sequence of Mu-type opioid receptor (Homo sapiens) (P35372 whole entry): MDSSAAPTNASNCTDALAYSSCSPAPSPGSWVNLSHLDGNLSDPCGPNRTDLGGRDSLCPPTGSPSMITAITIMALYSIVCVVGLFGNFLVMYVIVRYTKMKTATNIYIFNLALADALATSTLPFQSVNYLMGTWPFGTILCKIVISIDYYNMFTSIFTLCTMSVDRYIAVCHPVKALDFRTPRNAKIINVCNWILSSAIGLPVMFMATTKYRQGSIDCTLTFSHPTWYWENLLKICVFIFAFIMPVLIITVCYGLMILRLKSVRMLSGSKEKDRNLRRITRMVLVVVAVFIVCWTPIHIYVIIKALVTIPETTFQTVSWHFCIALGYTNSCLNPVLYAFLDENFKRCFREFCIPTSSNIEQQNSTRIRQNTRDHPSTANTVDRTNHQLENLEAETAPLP

[8] = target: Kappa-type opioid receptor (Homo sapiens) (UniProt P41145); assay: Binding affinity to kappa opioid receptor
Sequence of Kappa-type opioid receptor (Homo sapiens) (P41145 whole entry): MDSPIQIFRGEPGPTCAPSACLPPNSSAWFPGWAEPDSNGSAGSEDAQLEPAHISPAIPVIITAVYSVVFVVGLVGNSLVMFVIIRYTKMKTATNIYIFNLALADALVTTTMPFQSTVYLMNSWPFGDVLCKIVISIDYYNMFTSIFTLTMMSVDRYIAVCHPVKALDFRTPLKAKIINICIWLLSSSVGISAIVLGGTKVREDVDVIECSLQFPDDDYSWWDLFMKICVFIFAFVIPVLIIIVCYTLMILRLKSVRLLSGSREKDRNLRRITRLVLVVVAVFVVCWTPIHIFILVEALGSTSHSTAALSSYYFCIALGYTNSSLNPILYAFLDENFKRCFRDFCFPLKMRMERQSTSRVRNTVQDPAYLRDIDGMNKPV

[9] = target: Delta-type opioid receptor (Homo sapiens) (UniProt P41143); assay: Binding affinity to delta opioid receptor
Sequence of Delta-type opioid receptor (Homo sapiens) (P41143 whole entry): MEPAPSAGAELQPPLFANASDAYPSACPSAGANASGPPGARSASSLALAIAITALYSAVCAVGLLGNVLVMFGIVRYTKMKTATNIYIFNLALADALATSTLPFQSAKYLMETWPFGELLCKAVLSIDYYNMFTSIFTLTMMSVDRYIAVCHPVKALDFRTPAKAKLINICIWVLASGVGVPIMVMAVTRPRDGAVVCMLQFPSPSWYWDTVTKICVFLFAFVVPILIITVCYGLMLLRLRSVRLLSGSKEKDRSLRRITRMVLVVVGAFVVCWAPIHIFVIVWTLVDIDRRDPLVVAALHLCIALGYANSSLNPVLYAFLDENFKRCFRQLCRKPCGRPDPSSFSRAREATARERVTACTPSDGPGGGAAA

[10] = target: Cannabinoid receptor 1 (Homo sapiens) (UniProt P21554); assay: Binding affinity to CB1 receptor
Sequence of Cannabinoid receptor 1 (Homo sapiens) (P21554 whole entry): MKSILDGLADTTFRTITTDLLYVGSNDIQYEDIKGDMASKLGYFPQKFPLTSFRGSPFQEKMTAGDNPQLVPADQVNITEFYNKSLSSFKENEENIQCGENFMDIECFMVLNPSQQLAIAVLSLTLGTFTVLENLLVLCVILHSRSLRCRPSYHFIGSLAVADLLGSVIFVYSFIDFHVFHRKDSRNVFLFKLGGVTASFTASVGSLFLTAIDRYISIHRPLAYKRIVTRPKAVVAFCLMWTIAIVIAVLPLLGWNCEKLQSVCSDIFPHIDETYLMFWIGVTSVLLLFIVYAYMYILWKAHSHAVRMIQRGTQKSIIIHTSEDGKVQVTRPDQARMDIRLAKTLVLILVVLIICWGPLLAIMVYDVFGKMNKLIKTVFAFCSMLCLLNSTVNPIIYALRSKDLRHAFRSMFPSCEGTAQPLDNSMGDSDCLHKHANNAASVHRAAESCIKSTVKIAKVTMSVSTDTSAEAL

[11] = target: Cannabinoid receptor 2 (Homo sapiens) (UniProt P34972); assay: Binding affinity to CB2 receptor
Sequence of Cannabinoid receptor 2 (Homo sapiens) (P34972 whole entry): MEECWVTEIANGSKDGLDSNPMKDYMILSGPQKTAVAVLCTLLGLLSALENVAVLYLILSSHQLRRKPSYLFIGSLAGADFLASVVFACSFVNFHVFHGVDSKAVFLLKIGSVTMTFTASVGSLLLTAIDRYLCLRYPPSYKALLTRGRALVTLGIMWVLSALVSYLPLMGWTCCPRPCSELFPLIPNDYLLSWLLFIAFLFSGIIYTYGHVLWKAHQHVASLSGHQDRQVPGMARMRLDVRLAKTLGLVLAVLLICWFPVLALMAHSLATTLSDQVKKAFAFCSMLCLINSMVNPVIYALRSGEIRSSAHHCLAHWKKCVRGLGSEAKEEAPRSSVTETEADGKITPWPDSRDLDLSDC

[12] = test system: Liver microsomes; assay: Metabolic stability in rat liver microsomes; assay type: ADME, Microsome
[13] = test system: Liver microsomes; assay: Metabolic stability in human liver microsomes; assay type: ADME, Microsome
[14] = Metabolic stability in mouse liver microsomes; assay type: ADME, Microsome
[15] = Protein binding in rat; assay type: ADME, organism-based; conditions: in vivo, read-out: PB (converted)
[16] = Protein binding in human; assay type: ADME, organism-based; conditions: in vivo, read-out: PB (converted)
[17] = target: Cytochrome P450 3A4 (Homo sapiens, UniProt P08684); assay: Inhibition of CYP3A4 upto 10 uM; assay type: ADME
Sequence of Cytochrome P450 3A4 (P08684 whole entry): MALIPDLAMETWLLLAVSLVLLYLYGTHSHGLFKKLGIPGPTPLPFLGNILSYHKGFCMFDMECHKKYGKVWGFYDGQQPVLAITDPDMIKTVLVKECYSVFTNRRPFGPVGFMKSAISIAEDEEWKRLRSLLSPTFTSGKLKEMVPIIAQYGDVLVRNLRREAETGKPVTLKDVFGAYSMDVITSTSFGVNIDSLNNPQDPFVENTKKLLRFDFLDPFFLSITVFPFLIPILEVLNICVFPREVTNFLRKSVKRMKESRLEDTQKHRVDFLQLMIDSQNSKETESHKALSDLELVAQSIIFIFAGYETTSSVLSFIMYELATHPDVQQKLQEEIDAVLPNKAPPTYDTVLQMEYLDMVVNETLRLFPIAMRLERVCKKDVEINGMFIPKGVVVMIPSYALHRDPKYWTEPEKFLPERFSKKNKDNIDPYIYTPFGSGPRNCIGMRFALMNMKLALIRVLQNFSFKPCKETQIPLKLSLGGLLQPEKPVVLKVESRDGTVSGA

[18] = target: Cytochrome P450 2D6 (Homo sapiens, UniProt P10635); assay: Inhibition of CYP2D6 upto 10 uM; assay type: ADME
Sequence of Cytochrome P450 2D6 (P10635 whole entry): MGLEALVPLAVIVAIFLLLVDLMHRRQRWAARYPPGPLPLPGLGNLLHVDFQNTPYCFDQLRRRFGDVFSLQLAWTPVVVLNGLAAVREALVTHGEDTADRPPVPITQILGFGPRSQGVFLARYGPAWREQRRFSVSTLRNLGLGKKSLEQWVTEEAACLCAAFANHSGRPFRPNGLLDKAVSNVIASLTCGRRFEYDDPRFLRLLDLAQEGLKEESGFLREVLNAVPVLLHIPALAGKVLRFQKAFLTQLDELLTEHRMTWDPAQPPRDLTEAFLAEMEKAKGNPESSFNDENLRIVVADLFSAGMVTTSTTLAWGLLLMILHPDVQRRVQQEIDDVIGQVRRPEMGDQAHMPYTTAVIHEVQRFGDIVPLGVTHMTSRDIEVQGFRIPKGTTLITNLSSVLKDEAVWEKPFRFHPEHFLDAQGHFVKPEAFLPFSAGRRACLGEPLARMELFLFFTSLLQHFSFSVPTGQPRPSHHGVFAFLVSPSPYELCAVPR

[19] = target: Cytochrome P450 2C9 (Homo sapiens, UniProt P11712); assay: Inhibition of CYP2C9 upto 10 uM; assay type: ADME
Sequence of Cytochrome P450 2C9 (P11712 whole entry): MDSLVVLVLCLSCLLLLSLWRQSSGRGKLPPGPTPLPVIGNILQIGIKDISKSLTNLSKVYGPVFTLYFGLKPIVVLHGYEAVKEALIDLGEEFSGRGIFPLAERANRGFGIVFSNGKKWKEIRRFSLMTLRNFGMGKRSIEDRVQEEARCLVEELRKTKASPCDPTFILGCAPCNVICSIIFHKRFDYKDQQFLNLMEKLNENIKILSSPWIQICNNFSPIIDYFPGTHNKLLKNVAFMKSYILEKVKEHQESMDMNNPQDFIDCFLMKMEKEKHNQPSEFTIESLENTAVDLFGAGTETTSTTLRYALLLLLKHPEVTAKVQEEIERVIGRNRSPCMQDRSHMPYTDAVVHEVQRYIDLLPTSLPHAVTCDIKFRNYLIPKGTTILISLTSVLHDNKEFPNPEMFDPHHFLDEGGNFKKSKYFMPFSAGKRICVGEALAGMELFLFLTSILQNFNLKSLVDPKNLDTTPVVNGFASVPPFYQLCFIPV

[20] = Half life in rat at 10 mg/kg, iv; assay type: ADME, organism-based; set-up: dose 10 mg/kg, route intravenous; conditions: in vivo
[21] = Blood clearance in rat at 10 mg/kg, iv; assay type: ADME, organism-based; set-up: dose 10 mg/kg, route intravenous; conditions: whole blood
[22] = Terminal volume of distribution in rat at 10 mg/kg, iv; assay type: ADME, organism-based; set-up: dose 10 mg/kg, route intravenous; conditions: in vivo, read-out: Vbeta
[23] = Fractional bioavailability in rat at 10 mg/kg, iv and 10 mg/kg, po; assay type: ADME, organism-based; conditions: in vivo
[24] = Half life in mouse at 5 mg/kg, iv; assay type: ADME, organism-based; set-up: dose 5 mg/kg, route intravenous; conditions: in vivo
[25] = test system: Mus musculus; assay: Blood clearance in mouse at 5 mg/kg, iv; assay type: ADME, organism-based; set-up: dose 5 mg/kg, route intravenous; conditions: in vivo
[26] = Terminal volume of distribution in mouse at 5 mg/kg, iv; assay type: ADME, organism-based; set-up: dose 5 mg/kg, route intravenous; conditions: in vivo, read-out: Vbeta
[27] = Fractional bioavailability in rat at 5 mg/kg, iv and 5 mg/kg, po; assay type: ADME, organism-based; conditions: in vivo
[28] = Ratio of drug level in brain to plasma in rat at 10 mg/kg, iv after 30 mins; assay type: ADME, organism-based; set-up: dose 10 mg/kg, route intravenous
[29] = test system: Mus musculus; assay: Antiinflammatory activity against ip dosed BALB/c mouse assessed as inhibition of zymosan-induced peritonitis after 2 hrs pretreated 30 mins before zymosan challenge; assay type: functional
[30] = test system: Mus musculus; assay: Inhibition of clobenpropit-induced itching in ip dosed CD1/ICR mouse assessed as blockade of scratching in hind paw for 25 mins pretreated 30 mins before clobenpropit challenge; assay type: functional
[31] = test system: Rattus norvegicus; assay: Antinociceptive efficacy in ip dosed rat assessed as inhibition of carrageenan-induced inflammatory pain in paw after 30 mins by hotbox assay; assay type: functional; conditions: 0.5 h
[32] = test system: Rattus norvegicus; assay: Antinociceptive efficacy in rat assessed as inhibition of carrageenan-induced inflammatory pain in paw at 100 umol/kg, ip after 30 mins by hotbox assay relative to control; assay type: functional
[33] = test system: Rattus norvegicus; assay: Antinociceptive efficacy in spinal nerve ligated Sprague-Dawley rat assessed as reduction of neuropathic pain in left side paw at 100 umol/kg, ip administered 30 mins before testing relative to control; assay type: functional
[34] = target: T4, Histamine H4 receptor (Homo sapiens, UniProt Q9H3N8); conditions: HEK293
[35] = target: T4, Histamine H4 receptor; assay: Displacement of [3H]histamine from human histamine H4 receptor expressed in HEK293 cells; assay type: cell-based; conditions: read-out: Ki
[36] = Selectivity ratio of Ki for human histamine H4 receptor to Ki for histamine H1 receptor
[37] = Selectivity ratio of Ki for human histamine H4 receptor to Ki for histamine H2 receptor
[38] = species: Homo sapiens; assay: Selectivity ratio of Ki for human histamine H4 receptor to Ki for human histamine H3 receptor
[39] = Selectivity ratio of Ki for human histamine H4 receptor to Ki for 5HT1A receptor
[40] = Selectivity ratio of Ki for human histamine H4 receptor to Ki for 5HT1D receptor
[41] = Selectivity ratio of Ki for human histamine H4 receptor to Ki for 5HT2A receptor
[42] = Selectivity ratio of Ki for human histamine H4 receptor to Ki for dopamine D2 receptor
[43] = Selectivity ratio of Ki for human histamine H4 receptor to Ki for adrenergic alpha1 receptor
[44] = test system: Rattus norvegicus; assay: Antinociceptive efficacy against von Frey hair mechanically stimulated post-surgical pain after skin incision in rat assessed as withdrawal threshold at 10 umol/kg, ip; assay type: functional
[45] = test system: Rattus norvegicus; assay: Antinociceptive efficacy against von Frey hair mechanically stimulated post-surgical pain after skin incision in rat assessed as withdrawal threshold at 30 umol/kg, ip; assay type: functional
[46] = test system: Rattus norvegicus; assay: Antinociceptive efficacy against von Frey hair mechanically stimulated post-surgical pain after skin incision in rat assessed as withdrawal threshold at 100 umol/kg, ip; assay type: functional
[47] = test system: Rattus norvegicus; assay: Antinociceptive efficacy against von Frey hair mechanically stimulated post-surgical pain after skin incision in rat assessed as withdrawal threshold at 500 umol/kg, ip; assay type: functional
[48] = test system: Rattus norvegicus; assay: Antinociceptive efficacy against complete Freund's adjuvant-induced thermal hyperalgesia in rat assessed as withdrawal threshold at 10 umol/kg, ip after 48 hrs; assay type: functional
[49] = test system: Rattus norvegicus; assay: Antinociceptive efficacy against complete Freund's adjuvant-induced thermal hyperalgesia in rat assessed as withdrawal threshold at 30 umol/kg, ip after 48 hrs; assay type: functional
[50] = test system: Rattus norvegicus; assay: Antinociceptive efficacy against complete Freund's adjuvant-induced thermal hyperalgesia in rat assessed as withdrawal threshold at 100 umol/kg, ip after 48 hrs; assay type: functional
[51] = test system: Rattus norvegicus; assay: Antinociceptive efficacy against complete Freund's adjuvant-induced thermal hyperalgesia in rat assessed as withdrawal threshold at 500 umol/kg, ip after 48 hrs; assay type: functional

| EC50 [1] | EC50 [2] | Ki [3] | Activity [5] | Activity [6] | Activity [7] | Activity [8] | Activity [9] | Activity [10] | Activity [11] | Stability [12] | Stability [13] | Stability [14] | fraction unbound [15] | fraction unbound [16] | Activity [17] | Activity [18] | Activity [19] | Kp at 0.5 h [28] | Structure (SMILES) | Activity [4] | other results |
| --- | --- | --- | --- | --- | --- | --- | --- | --- | --- | --- | --- | --- | --- | --- | --- | --- | --- | --- | --- | --- | --- |
| 10 nM | 5.75 nM | 3.8 nM | inactive | inactive | inactive | inactive | inactive | inactive | inactive | 19 pmol/min/mg | 13 pmol/min/mg | 32.9 pmol/min/mg | 0.45 | 0.52 | Not Active | Not Active | Not Active | 2.2 | Nc1nc2c(c(N3CC[C@@H](N)C3)n1)CCCc1ccccc1-2 | Active | half-life [20]: 2.6 h; clearance [21]: 323 mL/min/kg; Vd [22]: 72.9 L/kg; bioavailability [23]: 34%; half-life [24]: 1.6 h; CL [25]: 1190 mL/min/kg; Vd [26]: 131 L/kg; bioavailability [27]: 90%; ED50 [29]: 34 µmol/kg; ED50 [30]: 33 µmol/kg; ED50 [31]: 72 µmol/kg; Efficacy [32]: 68%; Efficacy [33]: 47%; pKb [34]: 8.24 |
| 6.61 nM | 4.37 nM | 5.13 nM | inactive | inactive | inactive | inactive | inactive | inactive | inactive | 173 pmol/min/mg | 20.7 pmol/min/mg | 29.7 pmol/min/mg | 0.43 | 0.51 | Not Active | Not Active | Not Active | 3 | CN[C@@H]1CCN(c2nc(N)nc3c2CCCc2ccccc2-3)C1 | Active | Ki [35]: 3.5 nM; Ratio Ki [36]: > 1890; Ratio Ki [37]: > 1300; Ratio Ki [38]: 570; Ratio Ki [39]: 460; Ratio Ki [40]: 235; Ratio Ki [41]: 2030; Ratio Ki [42]: 1820; Ratio Ki [43]: 150; ED50 [29]: 100 µmol/kg; ED50 [30]: 235 µmol/kg; Efficacy [44]: 9%; Efficacy [45]: 21%; Efficacy [46]: 69%; Efficacy [47]: 55%; Efficacy [48]: 34%; Efficacy [49]: 35%; Efficacy [50]: 49%; Efficacy [51]: 79%; pKb [34]: 8.21 |
